Experimental data taken from patent US12358886B2, “Heterocyclic compounds for use in the treatment of cancer” (Artios Pharma Limited, priority 2019, dated 2025).
Like-named read-outs stand apart in the source and are kept apart here.

Target: Polθ protein (amino acids 2-2590) (Homo sapiens, UniProt O75417)
Test: Polθ full length enzyme potency assay (PicoGreen)
Settings: full length N-His, C-term FLAG tagged Polθ, PicoGreen fluorescence, 12 point concentration response
Protocol: Polθ Full Length Enzyme Potency Assay
PicoGreen assay was used to measure the ability of compounds to inhibit the activity of Polθ in vitro. […] DMSO concentration was maintained at 1% by back filling with DMSO solution. […] This was dispensed into each well of the compound plate using a VIAFLO 16 channel manual pipette (Integra) and pre-incubated at rt for 30 min. 3 μL of 2× working solution of dNTPs (40 μM) (dATP, dCTP, dGTP, dTTP; Sigma D6500, D4635, D4010, T0251) diluted in assay buffer was then added and the reaction incubated for 60 min at rt. The reaction was stopped by addition of 10 mM EDTA, 25 mM Tris pH 7.5 and 1:200 dilution of PicoGreen dye (Invitrogen P7581).

Sequence of Polθ protein (amino acids 2-2590) (O75417 2-2590): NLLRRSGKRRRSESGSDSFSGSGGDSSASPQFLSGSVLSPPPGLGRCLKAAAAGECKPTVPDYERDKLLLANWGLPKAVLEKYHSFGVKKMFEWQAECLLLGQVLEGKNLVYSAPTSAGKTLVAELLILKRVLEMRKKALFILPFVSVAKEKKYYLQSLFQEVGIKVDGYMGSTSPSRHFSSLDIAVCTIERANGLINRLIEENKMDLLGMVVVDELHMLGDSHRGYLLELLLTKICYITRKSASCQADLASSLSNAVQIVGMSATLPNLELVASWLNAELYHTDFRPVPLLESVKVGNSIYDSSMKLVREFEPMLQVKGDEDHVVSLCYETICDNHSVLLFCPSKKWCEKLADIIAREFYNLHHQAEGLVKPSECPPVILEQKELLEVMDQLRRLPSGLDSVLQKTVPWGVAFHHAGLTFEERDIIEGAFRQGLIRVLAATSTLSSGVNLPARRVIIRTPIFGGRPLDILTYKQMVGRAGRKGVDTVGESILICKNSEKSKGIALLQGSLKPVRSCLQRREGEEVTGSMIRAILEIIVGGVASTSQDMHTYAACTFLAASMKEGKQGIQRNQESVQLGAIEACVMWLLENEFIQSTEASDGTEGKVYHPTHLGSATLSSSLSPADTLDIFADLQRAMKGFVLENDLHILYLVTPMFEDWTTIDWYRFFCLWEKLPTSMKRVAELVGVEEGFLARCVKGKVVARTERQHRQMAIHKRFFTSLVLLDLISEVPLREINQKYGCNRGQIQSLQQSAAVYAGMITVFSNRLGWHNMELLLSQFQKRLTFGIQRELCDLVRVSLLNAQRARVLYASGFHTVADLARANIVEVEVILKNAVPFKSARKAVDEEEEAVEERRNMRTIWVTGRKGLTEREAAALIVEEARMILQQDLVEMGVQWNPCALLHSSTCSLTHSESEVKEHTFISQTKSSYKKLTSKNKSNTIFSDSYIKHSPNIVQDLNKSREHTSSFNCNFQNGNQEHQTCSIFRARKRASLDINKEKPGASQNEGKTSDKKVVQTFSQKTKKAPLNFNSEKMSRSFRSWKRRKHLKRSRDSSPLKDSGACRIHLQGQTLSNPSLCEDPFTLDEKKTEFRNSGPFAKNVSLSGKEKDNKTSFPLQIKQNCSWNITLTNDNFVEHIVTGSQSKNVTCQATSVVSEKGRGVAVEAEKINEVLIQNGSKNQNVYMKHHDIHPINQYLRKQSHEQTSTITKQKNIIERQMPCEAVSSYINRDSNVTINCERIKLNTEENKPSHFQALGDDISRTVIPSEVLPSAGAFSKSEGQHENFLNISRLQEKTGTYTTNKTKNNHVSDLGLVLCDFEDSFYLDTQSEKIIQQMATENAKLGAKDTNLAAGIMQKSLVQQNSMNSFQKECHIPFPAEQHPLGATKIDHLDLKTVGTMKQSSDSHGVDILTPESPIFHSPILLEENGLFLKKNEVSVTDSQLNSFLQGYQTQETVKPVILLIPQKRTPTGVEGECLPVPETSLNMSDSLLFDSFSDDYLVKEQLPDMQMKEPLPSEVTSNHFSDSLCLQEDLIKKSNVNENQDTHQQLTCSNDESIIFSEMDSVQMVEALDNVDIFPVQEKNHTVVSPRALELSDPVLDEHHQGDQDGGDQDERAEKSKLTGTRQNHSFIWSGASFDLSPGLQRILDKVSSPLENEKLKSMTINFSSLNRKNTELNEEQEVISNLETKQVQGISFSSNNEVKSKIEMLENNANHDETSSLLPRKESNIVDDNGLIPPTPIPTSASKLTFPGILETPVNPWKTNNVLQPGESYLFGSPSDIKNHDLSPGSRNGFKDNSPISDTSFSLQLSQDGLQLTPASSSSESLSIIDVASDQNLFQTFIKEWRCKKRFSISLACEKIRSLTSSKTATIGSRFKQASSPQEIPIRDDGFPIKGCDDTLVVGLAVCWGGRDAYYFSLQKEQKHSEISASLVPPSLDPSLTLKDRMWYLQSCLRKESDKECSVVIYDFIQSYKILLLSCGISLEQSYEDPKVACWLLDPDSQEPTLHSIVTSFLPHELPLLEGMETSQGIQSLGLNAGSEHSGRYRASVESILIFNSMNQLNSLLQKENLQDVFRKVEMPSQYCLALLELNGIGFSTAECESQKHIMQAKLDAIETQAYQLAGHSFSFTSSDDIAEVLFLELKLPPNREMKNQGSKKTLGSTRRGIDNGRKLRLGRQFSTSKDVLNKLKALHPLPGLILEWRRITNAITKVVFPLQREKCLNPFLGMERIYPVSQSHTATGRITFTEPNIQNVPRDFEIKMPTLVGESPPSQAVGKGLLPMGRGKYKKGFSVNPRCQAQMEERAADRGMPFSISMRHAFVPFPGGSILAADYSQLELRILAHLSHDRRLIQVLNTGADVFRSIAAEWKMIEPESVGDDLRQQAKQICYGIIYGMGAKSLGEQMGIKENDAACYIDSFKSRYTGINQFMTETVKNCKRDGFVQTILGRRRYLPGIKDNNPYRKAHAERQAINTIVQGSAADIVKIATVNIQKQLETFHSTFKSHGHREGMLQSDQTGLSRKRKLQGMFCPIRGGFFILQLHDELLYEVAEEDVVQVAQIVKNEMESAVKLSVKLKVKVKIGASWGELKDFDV

Row | IC50 (Polθ IC50 (nM)) | IC50 (read-out: Polθ IC50) | SMILES
1 | 19 nM |  | Cc1cc(C(F)(F)F)cc(N2C(=O)N(CCN3CC[C@@H](O)C3)C[C@H]2C(=O)N(C)c2ccc(F)c(Cl)c2)n1 [Example 197, (S)-N-(3-Chloro-4-fluorophenyl)-1-(2-((R)-3-hydroxypyrrolidin-1-yl)ethyl)-N-methyl-3-(6-methyl-4-(trifluoromethyl)pyridin-2-yl)-2-oxoimidazolidine-4-carboxamide]
2 | 6 nM |  | Cc1cc(C(F)(F)F)cc(N2C(=O)N(CC3(O)CNC3)C[C@H]2C(=O)N(C)c2ccc(F)c(Cl)c2F)n1 [Example 224, (S)—N-(3-Chloro-2,4-difluorophenyl)-1-((3-hydroxyazetidin-3-yl)methyl)-N-methyl-3-(6-methyl-4-(trifluoromethyl)pyridin-2-yl)-2-oxoimidazolidine-4-carboxamide]
3 |  | 95 nM | CCN(C(=O)[C@@H]1C[C@H](O)C(=O)N1c1cc(C(F)(F)F)cc(C)n1)c1ccc(F)c(Cl)c1 [Example 75, (2S,4S)—N-(3-Chloro-4-fluorophenyl)-N-ethyl-4-hydroxy-1-(6-methyl-4-(trifluoromethyl)pyridin-2-yl)-5-oxopyrrolidine-2-carboxamide]
4 | 104 nM |  | CCN(C(=O)[C@@H]1C[C@H](N2CCOC[C@H]2CO)CN1c1nc(C)cc(C(F)(F)F)c1C#N)c1ccc(F)c(Cl)c1 [Example 153, (2S,4S)-N-(3-Chloro-4-fluorophenyl)-1-(3-cyano-6-methyl-4-(trifluoromethyl)pyridin-2-yl)-N-ethyl-4-((R)-3-(hydroxymethyl)morpholino)pyrrolidine-2-carboxamide]
5 | 31 nM |  | Cc1cc(C(F)(F)F)cc(N2C(=O)[C@@H](O)[C@@H](O)[C@H]2C(=O)N(C)c2cc(F)cc(Cl)c2)n1 [Example 68, (2S,3S,4S)-N-(3-Chloro-5-fluoro-phenyl)-3,4-dihydroxy-N-methyl-1-(6-methyl-4-(trifluoromethyl)pyridin-2-yl)-5-oxopyrrolidine-2-carboxamide]
6 | 68 nM |  | Cc1cc(C(F)(F)F)cc(N2C(=O)OC[C@H]2C(=O)N(C)c2ccc(Cl)cc2Cl)n1 [Example 171, (S)-N-(2,4-Dichlorophenyl)-N-methyl-3-(6-methyl-4-(trifluoromethyl)pyridin-2-yl)-2-oxooxazolidine-4-carboxamide]
7 | 17 nM |  | Cc1cc(C(F)(F)F)cc(N2C(=O)N(CC3(O)CNC3)C[C@H]2C(=O)N(C)c2ccc(F)c(Cl)c2)n1 [Example 225, (S)—N-(3-Chloro-4-fluorophenyl)-1-((3-hydroxyazetidin-3-yl)methyl)-N-methyl-3-(6-methyl-4-(trifluoromethyl)pyridin-2-yl)-2-oxoimidazolidine-4-carboxamide]
8 | 193 nM |  | Cc1cc(C(F)(F)F)cc(N2C(=O)[C@@H](O)[C@@H](O)[C@H]2C(=O)N(C)c2ccc(F)c(C)n2)n1 [Example 170, (2S,3S,4S)—N-(5-Fluoro-6-methylpyridin-2-yl)-3,4-dihydroxy-N-methyl-1-(6-methyl-4-(trifluoromethyl)pyridin-2-yl)-5-oxopyrrolidine-2-carboxamide]
9 |  | 16 nM | Cc1cc(C(F)(F)F)c(C#N)c(N2C[C@@H](O)C[C@H]2C(=O)N(C)c2ccc(F)c(Cl)c2)n1 [Example 5, (2S,4S)—N-(3-Chloro-4-fluorophenyl)-1-(3-cyano-6-methyl-4-(trifluoro-methyl)pyridin-2-yl)-4-hydroxy-N-methylpyrrolidine-2-carboxamide]
10 | 130 nM |  | Cc1cc(C(F)(F)F)c(C#N)c(N2CCC[C@H]2C(=O)N(C)c2cc(Cl)c3ccn(C)c3n2)n1 [Example 244, (S)—N-(4-Chloro-1-methyl-pyrrolo[2,3-b]pyridin-6-yl)-1-[3-cyano-6-methyl-4-(trifluoromethyl)-2-pyridyl]-N-methyl-pyrrolidine-2-carboxamide]
11 | 90 nM |  | Cc1cc(C(F)(F)F)cc(N2C(=O)[C@@H](CN(C)C)C[C@@H]2C(=O)N(C)c2ccc(F)c(Cl)c2)n1 (stereo in doubt) [Example 79, (2R,4R)—N-(3-Chloro-4-fluorophenyl)-4-((dimethylamino)methyl)-N-methyl-1-(6-methyl-4-(trifluoromethyl)pyridin-2-yl)-5-oxopyrrolidine-2-carboxamide]
12 | 166 nM |  | CCN(C(=O)[C@@H]1C[C@H](O)CN1c1nc(C)cc(C(F)(F)F)n1)c1ccc(F)c(Cl)c1 [Example 64, (2S,4S)—N-(3-Chloro-4-fluorophenyl)-N-ethyl-4-hydroxy-1-(4-methyl-6-(trifluoromethyl)-pyrimidin-2-yl)pyrrolidine-2-carboxamide]
13 | 118 nM |  | Cc1cccc(N(C)C(=O)[C@@H]2[C@H](O)[C@H](O)CN2c2nc(C)cc(C)c2C#N)c1 [Example 55, (2S,3S,4R)-1-(3-Cyano-4,6-dimethyl-pyridin-2-yl)-3,4-dihydroxy-N-methyl-N-(m-tolyl)-pyrrolidine-2-carboxamide]
14 | 263 nM |  | CCN(C(=O)[C@@H]1C[C@@H](N(C)C)CN1c1nc(C)cc(C)c1C#N)c1cccc(C)c1 [Example 41, (2S,4R)-1-(3-Cyano-4,6-dimethylpyridin-2-yl)-4-(dimethylamino)-N-ethyl-N-(m-tolyl)pyrrolidine-2-carboxamide]
15 |  | 15 nM | Cc1cc(C(F)(F)F)cc(N2C(=O)OC[C@H]2C(=O)N(C)c2cccc(Cl)c2F)n1 [Example 95, (S)-N-(3-Chloro-2-fluorophenyl)-N-methyl-3-(6-methyl-4-(trifluoromethyl)pyridin-2-yl)-2-oxooxazolidine-4-carboxamide]
16 | 25 nM |  | CCN(C(=O)[C@@H]1C[C@H](N2CCOCC2)CN1c1nc(C)cc(C)c1C#N)c1cccc(C)c1 [Example 42, (2S,4S)-1-(3-Cyano-4,6-dimethylpyridin-2-yl)-N-ethyl-4-morpholino-N-(m-tolyl)pyrrolidine-2-carboxamide]
17 | 573 nM |  | CCN(C(=O)[C@H]1C[C@@H](N(C)C2CCNC2)CN1c1nc(C)cc(C)c1C#N)c1cccc(C)c1 (stereo in doubt) [Example 48, (2R,4R)-1-(3-Cyano-4,6-dimethylpyridin-2-yl)-N-ethyl-4-(methyl(pyrrolidin-3-yl)amino)-N-(m-tolyl)pyrrolidine-2-carboxamide]
18 | 28 nM |  | CCN(C(=O)[C@@H]1C[C@H](N2CCOC(CO)C2)CN1c1nc(C)cc(C(F)(F)F)c1C#N)c1cccc(Cl)c1 (stereo partly drawn) [Example 147, (2S,4S)-N-(3-Chlorophenyl)-1-(3-cyano-6-methyl-4-(trifluoromethyl)pyridin-2-yl)-N-ethyl-4-(2-(hydroxymethyl)morpholino)pyrrolidine-2-carboxamide]
19 | 46 nM |  | C=Cc1cc(C(F)(F)F)cc(N2C(=O)OC[C@H]2C(=O)N(C)c2ccc(F)c(Cl)c2)n1 [Example 114, (S)—N-(3-Chloro-4-fluorophenyl)-N-methyl-2-oxo-3-(4-(trifluoromethyl)-6-vinylpyridin-2-yl)oxazolidine-4-carboxamide]
20 | 9 nM |  | Cc1cc(C(F)(F)F)cc(N2C(=O)OC[C@H]2C(=O)N(C)c2ccc(F)c(C)c2)n1 [Example 86, (S)-N-(4-Fluoro-3-methylphenyl)-N-methyl-3-(6-methyl-4-(trifluoromethyl)pyridin-2-yl)-2-oxooxazolidine-4-carboxamide]
21 | 42 nM |  | CCN(C(=O)[C@@H]1C[C@H](N2CCOC(CO)C2)CN1c1cc(C(F)(F)F)cc(C)n1)c1ccc(F)c(F)c1 (stereo partly drawn) [Example 128, (2S,4S)-N-(3,4-Difluorophenyl)-N-ethyl-4-(2-(hydroxymethyl)morpholino)-1-(6-methyl-4-(trifluoromethyl)pyridin-2-yl)pyrrolidine-2-carboxamide]
22 | 71 nM |  | Cc1cc(C(F)(F)F)cc(N2C(=O)[C@@H](O)[C@@H](O)[C@H]2C(=O)N(C)c2ccc3cnn(C)c3c2)n1 [Example 168, (2S,3S,4S)-3,4-Dihydroxy-N-methyl-N-(1-methyl-1H-indazol-6-yl)-1-(6-methyl-4-(trifluoromethyl)pyridin-2-yl)-5-oxopyrrolidine-2-carboxamide]
23 | 100 nM |  | CCN(C(=O)[C@@H]1C[C@H](N2CC(O)C2)CN1c1cc(C(F)(F)F)cc(C)n1)c1ccc(F)c(F)c1 [Example 130, (2S,4S)-N-(3,4-Difluorophenyl)-N-ethyl-4-(3-hydroxyazetidin-1-yl)-1-(6-methyl-4-(trifluoromethyl)pyridin-2-yl)pyrrolidine-2-carboxamide]
24 | 9 nM |  | Cc1cc(C(F)(F)F)cc(N2C(=O)N(CCS(C)(=O)=O)C[C@H]2C(=O)N(C)c2ccc(F)c(Cl)c2)n1 [Example 180, (S)—N-(3-Chloro-4-fluorophenyl)-N-methyl-3-(6-methyl-4-(trifluoromethyl)pyridin-2-yl)-1-(2-(methylsulfonyl)ethyl)-2-oxoimidazolidine-4-carboxamide]
25 | 77 nM |  | CCN(C(=O)[C@@H]1C[C@H](O)CN1c1nc(C)cc(C)c1C#N)c1cccc(C)c1 [Example 21, (2S,4S)-1-(3-Cyano-4,6-dimethylpyridin-2-yl)-N-ethyl-4-hydroxy-N-(m-tolyl)pyrrolidine-2-carboxamide]
26 | 156 nM |  | CCN(C(=O)[C@@H]1C[C@H](N[C@@H]2COCC[C@H]2O)CN1c1cc(C(F)(F)F)cc(C)n1)c1ccc(F)c(F)c1 [Example 132, (2S,4S)-N-(3,4-Difluorophenyl)-N-ethyl-4-(((3R,4R)-4-hydroxytetrahydro-2H-pyran-3-yl)amino)-1-(6-methyl-4-(trifluoromethyl)pyridin-2-yl)pyrrolidine-2-carboxamide]
27 | 8 nM |  | Cc1cc(C(F)(F)F)cc(N2C(=O)[C@@H](O)[C@@H](O)[C@H]2C(=O)N(C)c2ccc(F)c(Cl)c2)n1 [Example 65, (2S,3S,4S)—N-(3-Chloro-4-fluorophenyl)-3,4-dihydroxy-N-methyl-1-(6-methyl-4-(trifluoromethyl)pyridin-2-yl)-5-oxopyrrolidine-2-carboxamide]
28 | 6 nM |  | Cc1cc(C(F)(F)F)cc(N2C(=O)OC[C@H]2C(=O)N(C)c2ccc(Cl)c(C)c2)n1 [Example 84, (S)—N-(4-Chloro-3-methylphenyl)-N-methyl-3-(6-methyl-4-(trifluoromethyl)pyridin-2-yl)-2-oxooxazolidine-4-carboxamide]
